Measurements: patent publication US3951955A, “Penicillins substituted with heterocyclic groups” (Sumitomo Chemical Company, Limited, priority 1970, dated 1976)
Converted amounts (≈) assume the structure as drawn.

Columns and labels:
[1] = test system: Pseudomonas; conditions: background statement on prior art; cited from earlier work
[2] = test system: Proteus miravilis 2425; test: minimal inhibitory concentration, agar dilution method (in vitro); format: cell-based
Text: (§1) When determined according to the agar dilution method, the penicillins [I] afford the minimal inhibitory concentrations as shown in the following Table 1: […]

[3] = test system: Pseudomonas aeruginosa 104; test: as above; format: cell-based
Text: as §1

[4] = test system: Staphylococcus aureus 209P; test: as above; format: cell-based
Text: as §1

[5] = test system: Klebsiella pneumoniae 602; test: as above; format: cell-based
Text: as §1

[6] = test system: Escherichia coli NIHJ; test: as above; format: cell-based
Text: as §1

[7] = test system: various gram-positive and gram-negative bacteria; conditions: background statement on prior art; cited from earlier work

| MIC [2] [µg/mL] | MIC [3] [µg/mL] | MIC [4] [µg/mL] | MIC [5] [µg/mL] | MIC [6] [µg/mL] | SMILES | antimicrobial activity against Pseudomonas [1] | growth inhibition / antimicrobial activity against gram-positive and gram-negative bacteria [7] |
| --- | --- | --- | --- | --- | --- | --- | --- |
| 1.56 (≈ 2.63 µM) | 3.13 (≈ 5.28 µM) | 0.78 (≈ 1.32 µM) | 0.78 (≈ 1.32 µM) | 0.78 (≈ 1.32 µM) | CCN(CC)c1ccc2ncc(C(=O)NC(C(=O)NC3C(=O)N4C3SC(C)(C)C4C(=O)O)c3ccccc3)c(O)c2n1 (stereo not shown) [Example 37] |  |  |
| 1.56 (≈ 2.73 µM) | 6.25 (≈ 11 µM) | 0.78 (≈ 1.37 µM) | 1.56 (≈ 2.73 µM) | 1.56 (≈ 2.73 µM) | CN(C)c1ccc2ncc(C(=O)NC(C(=O)NC3C(=O)N4C3SC(C)(C)C4C(=O)O)c3cccs3)c(O)c2n1 (stereo not shown) [Example 38] |  |  |
| 3.13 (≈ 5.93 µM) | 6.25 (≈ 11.8 µM) | 0.78 (≈ 1.48 µM) | 3.13 (≈ 5.93 µM) | 1.56 (≈ 2.96 µM) | CC1(C)SC2C(NC(=O)C(NC(=O)c3cnc4cccnc4c3O)c3cccs3)C(=O)N2C1C(=O)O (stereo not shown) [Example 39] |  |  |
| 1.56 (≈ 2.91 µM) | 3.13 (≈ 5.83 µM) | 0.78 (≈ 1.45 µM) | 1.56 (≈ 2.91 µM) | 1.56 (≈ 2.91 µM) | CC1(C)SC2C(NC(=O)C(NC(=O)c3cnc4ccc(N)nc4c3O)c3ccccc3)C(=O)N2C1C(=O)O (stereo not shown) [Example 40] |  |  |
| 6.25 (≈ 11.1 µM) | 6.25 (≈ 11.1 µM) | 0.78 (≈ 1.38 µM) | 6.25 (≈ 11.1 µM) | 3.13 (≈ 5.54 µM) | CCNc1ccc2ncc(C(=O)NC(C(=O)NC3C(=O)N4C3SC(C)(C)C4C(=O)O)c3ccccc3)c(O)c2n1 (stereo not shown) [Example 41] |  |  |
| 3.13 (≈ 4.82 µM) | 3.13 (≈ 4.82 µM) | 1.56 (≈ 2.4 µM) | 3.13 (≈ 4.82 µM) | 3.13 (≈ 4.82 µM) | CCCCN(CCCC)c1ccc2ncc(C(=O)NC(C(=O)NC3C(=O)N4C3SC(C)(C)C4C(=O)O)c3ccccc3)c(O)c2n1 (stereo not shown) [Example 42] |  |  |
| 12.5 (≈ 24 µM) | 6.25 (≈ 12 µM) | 0.78 (≈ 1.5 µM) | 6.25 (≈ 12 µM) | 12.5 (≈ 24 µM) | CC1(C)SC2C(NC(=O)C(NC(=O)c3cnc4ccncc4c3O)c3ccccc3)C(=O)N2C1C(=O)O (stereo not shown) [Example 43] |  |  |
| 6.25 (≈ 11.3 µM) | 12.5 (≈ 22.7 µM) | 0.78 (≈ 1.41 µM) | 12.5 (≈ 22.7 µM) | 12.5 (≈ 22.7 µM) | COc1nccc2ncc(C(=O)NC(C(=O)NC3C(=O)N4C3SC(C)(C)C4C(=O)O)c3ccccc3)c(O)c12 (stereo not shown) [Example 44] |  |  |
| 6.25 (≈ 11.1 µM) | 12.5 (≈ 22.1 µM) | 0.78 (≈ 1.38 µM) | 3.13 (≈ 5.54 µM) | 6.25 (≈ 11.1 µM) | CN(C)c1nccc2ncc(C(=O)NC(C(=O)NC3C(=O)N4C3SC(C)(C)C4C(=O)O)c3ccccc3)c(O)c12 (stereo not shown) [Example 45] |  |  |
| 3.13 (≈ 5.53 µM) | 3.13 (≈ 5.53 µM) | 1.56 (≈ 2.76 µM) | 1.56 (≈ 2.76 µM) | 3.13 (≈ 5.53 µM) | CN(C)c1ncc2c(O)c(C(=O)NC(C(=O)NC3C(=O)N4C3SC(C)(C)C4C(=O)O)c3ccccc3)cnc2n1 (stereo not shown) [Example 46] |  |  |
| 6.25 (≈ 12 µM) | 3.13 (≈ 5.99 µM) | 0.78 (≈ 1.49 µM) | 3.13 (≈ 5.99 µM) | 3.13 (≈ 5.99 µM) | CC1(C)SC2C(NC(=O)C(NC(=O)c3cnc4ncncc4c3O)c3ccccc3)C(=O)N2C1C(=O)O (stereo not shown) [Example 47] |  |  |
| 6.25 (≈ 11.4 µM) | 12.5 (≈ 22.7 µM) | 0.78 (≈ 1.42 µM) | 3.13 (≈ 5.68 µM) | 12.5 (≈ 22.7 µM) | Cc1nc(C)c2c(O)c(C(=O)NC(C(=O)NC3C(=O)N4C3SC(C)(C)C4C(=O)O)c3ccccc3)cnc2n1 (stereo not shown) [Example 48] |  |  |
| 6.25 (≈ 11.6 µM) | 12.5 (≈ 23.3 µM) | 0.78 (≈ 1.45 µM) | 6.25 (≈ 11.6 µM) | 6.25 (≈ 11.6 µM) | CC1(C)SC2C(NC(=O)C(NC(=O)c3cnc4nc(N)ncc4c3O)c3ccccc3)C(=O)N2C1C(=O)O (stereo not shown) [Example 49] |  |  |
| 1.56 (≈ 2.99 µM) | 3.13 (≈ 5.99 µM) | 0.78 (≈ 1.49 µM) | 0.78 (≈ 1.49 µM) | 1.56 (≈ 2.99 µM) | CC1(C)SC2C(NC(=O)C(NC(=O)c3cnc4cncnc4c3O)c3ccccc3)C(=O)N2C1C(=O)O (stereo not shown) [Example 50] |  |  |
| 1.56 (≈ 2.76 µM) | 3.13 (≈ 5.53 µM) | 0.78 (≈ 1.38 µM) | 0.78 (≈ 1.38 µM) | 0.78 (≈ 1.38 µM) | CN(C)c1ncc2ncc(C(=O)NC(C(=O)NC3C(=O)N4C3SC(C)(C)C4C(=O)O)c3ccccc3)c(O)c2n1 (stereo not shown) [Example 51] |  |  |
| 3.13 (≈ 5.51 µM) | 6.25 (≈ 11 µM) | 1.56 (≈ 2.74 µM) | 3.13 (≈ 5.51 µM) | 3.13 (≈ 5.51 µM) | COc1nc(O)nc2c(O)c(C(=O)NC(C(=O)NC3C(=O)N4C3SC(C)(C)C4C(=O)O)c3ccccc3)cnc12 (stereo not shown) [Example 52] |  |  |
| 6.25 (≈ 11.6 µM) | 6.25 (≈ 11.6 µM) | 1.56 (≈ 2.9 µM) | 6.25 (≈ 11.6 µM) | 3.13 (≈ 5.81 µM) | CC1(C)SC2C(NC(=O)C(NC(=O)c3cnc4cnc(O)nc4c3O)c3ccccc3)C(=O)N2C1C(=O)O (stereo not shown) [Example 53] |  |  |
| 3.13 (≈ 5.37 µM) | 6.25 (≈ 10.7 µM) | 1.56 (≈ 2.68 µM) | 3.13 (≈ 5.37 µM) | 6.25 (≈ 10.7 µM) | COc1nc(OC)c2ncc(C(=O)NC(C(=O)NC3C(=O)N4C3SC(C)(C)C4C(=O)O)c3ccccc3)c(O)c2n1 (stereo not shown) [Example 54] |  |  |
| 3.13 (≈ 5.68 µM) | 3.13 (≈ 5.68 µM) | 0.78 (≈ 1.42 µM) | 1.56 (≈ 2.83 µM) | 3.13 (≈ 5.68 µM) | Cc1nc(C)c2ncc(C(=O)NC(C(=O)NC3C(=O)N4C3SC(C)(C)C4C(=O)O)c3ccccc3)c(O)c2n1 (stereo not shown) [Example 55] |  |  |
| 6.25 (≈ 11.6 µM) | 3.13 (≈ 5.83 µM) | 0.78 (≈ 1.45 µM) | 3.13 (≈ 5.83 µM) | 3.13 (≈ 5.83 µM) | Cc1ncc2ncc(C(=O)NC(C(=O)NC3C(=O)N4C3SC(C)(C)C4C(=O)O)c3ccccc3)c(O)c2n1 (stereo not shown) [Example 56] |  |  |
| 3.13 (≈ 4.66 µM) | 6.25 (≈ 9.3 µM) | 1.56 (≈ 2.32 µM) | 3.13 (≈ 4.66 µM) | 6.25 (≈ 9.3 µM) | CC1(C)SC2C(NC(=O)C(NC(=O)c3cnc4cnc(NC(=O)OCc5ccccc5)nc4c3O)c3ccccc3)C(=O)N2C1C(=O)O (stereo not shown) [Example 57] |  |  |
| 3.13 (≈ 5.92 µM) | 3.13 (≈ 5.92 µM) | 0.78 (≈ 1.48 µM) | 1.56 (≈ 2.95 µM) | 1.56 (≈ 2.95 µM) | CC1(C)SC2C(NC(=O)C(NC(=O)c3cnc4cncnc4c3O)c3cccs3)C(=O)N2C1C(=O)O (stereo not shown) [Example 58] |  |  |
| 3.13 (≈ 5.82 µM) | 3.13 (≈ 5.82 µM) | 0.78 (≈ 1.45 µM) | 1.56 (≈ 2.9 µM) | 3.13 (≈ 5.82 µM) | CC1(C)SC2C(NC(=O)C(NC(=O)c3cnc4cnc(N)nc4c3O)c3ccccc3)C(=O)N2C1C(=O)O (stereo not shown) [Example 59] |  |  |
| 3.13 (≈ 5.67 µM) | 12.5 (≈ 22.7 µM) | 1.56 (≈ 2.83 µM) | 3.13 (≈ 5.67 µM) | 6.25 (≈ 11.3 µM) | COc1cc2ncc(C(=O)NC(C(=O)NC3C(=O)N4C3SC(C)(C)C4C(=O)O)c3ccccc3)c(O)c2cn1 (stereo not shown) [Example 60] |  |  |

| SMILES | MIC [2] [µg/mL] | MIC [3] [µg/mL] | MIC [4] [µg/mL] | MIC [5] [µg/mL] | MIC [6] [µg/mL] | antimicrobial activity against Pseudomonas [1] | growth inhibition / antimicrobial activity against gram-positive and gram-negative bacteria [7] |
| --- | --- | --- | --- | --- | --- | --- | --- |
| CC1(C)S[C@@H]2C(NC(=O)C(N)c3ccccc3)C(=O)N2[C@H]1C(=O)O (stereo partly drawn) [Ampicillin, 6-(α-aminophenylacetamido)-penicillanic acid, reference compound] | 3.13 (≈ 8.96 µM) | > 200 | 0.2 (≈ 0.572 µM) | 50 (≈ 143 µM) | 6.25 (≈ 17.9 µM) | does not exert any appreciable antimicrobial activity against Pseudomonas | inhibits the growth of various gram-positive and gram-negativebacteria |
